Here are results for 1 molecule from US10231939B2, “Hydroxytyrosol and oleuropein compositions for induction of DNA damage, cell death and LSD1 inhibition” (priority 2012, dated 2019).

Data set [1] can be described thus: Cell viability (Cell-Titer Blue), PBMC. The class given is cell-based. The following applies: human, PBMC (peripheral blood mononuclear cells), hydroxytyrosol 20 or 100 μM. As to the method:
Cells were seeded at densities of 7,500 cells/in black flat bottom 96-well plates (Nalge Nunc, Penfield, N.Y., USA) and treated with a dose response of hydroxytyrosol (0-200 μM), oleuropein (0-800 μM), tyrosol (0-1000 μM) and homovanilic acid (0-1000 μM) for 24 hours at 37° C., 5% (v/v) CO2. Cell viability was determined after 24 hour exposure to hydroxytyrosol and measured using the Cell-Titer Blue® Assay kit (Promega, Madison, Wis., USA) according to the manufacturer's instructions. Cell-Titer Blue reagent was added to each well and incubated for 4 hours at 37° C., 5% CO2, before reading fluorescence intensity (550 nm excitation; 615 nm emission) using the Perkin Elmer Victor3 (Perkin Elmer, MA, USA) multi-label plate reader.

Data set [2] relates to K562 cells. The experiment in a line: Total Antioxidant Capacity Assay, K562. Particulars: 50 μM hydroxytyrosol or Formulation 2 (4× diluted), 24 hours. It counts as cell-based, human.
Data set [3] relates to K562 cells. Description: Western blotting of histone methylation, K562. The class given is cell-based, human. The following applies: K562, 100 μM, 24 hours. A general note: Immunoblotting shows a protein as a band on a membrane.
The test system of the next data set is PBMC. Description: Total Antioxidant Capacity Assay, PBMC. The class given is cell-based, human. Particulars: 50 μM hydroxytyrosol, 200 μM Oleuropein or Formulation 2 (dilution factor=4), 24 hours. As to the method: Human peripheral blood mononuclear cells were seeded at 1×10^6 cells per well in 12 well culture plates (Nalge Nunc) with Formulation 2 (dilution factor=4) (Table 9), 50 μM hydroxytyrosol or 200 μM Oleuropein for 24 hours; 37° C., 5% (v/v) CO2. In separate experiments, cells were treated with 30 mM glucose for 72 hours prior to 24 hours incubation in fresh media and then a 24 hour incubation with the hydroxytyrosol-containing formulation 2 (dilution factor=4); 37° C., 5% (v/v) CO2. Experiments to determine the protection of cells following doxorubicin treatment involved pre-treatment with Formulation 2 (dilution factor=4) for 24 hours prior to 1 hour incubation with 1 μM doxorubicin. Cells were washed and incubated for a further 24 hours in fresh media; 37° C., 5% (v/v) CO2. Cells were harvested for their total protein by centrifugation at 1000×g for 10 minutes at 4° C. to pellet cell suspensions. […] Cell lysates were analyzed for their total antioxidant capacity. […] The sum of endogenous and food-derived antioxidants in the sample represented the total antioxidant activity of the cells and was measured by their ability to inhibit the oxidation of ABTS (2,2′-Azino-di-[3-ethylbenzthiazoline sulphonate]) in the presence of metmyoglobin using the Perkin Elmer Multi-plate reader (λem=750 nm). […]

Data set [4] deals with K562 cells. The experiment in a line: Apo-ONE Homogeneous Caspase 3/7 assay, K562. The class given is cell-based, human. As to the method:
Apoptosis was determined by cell lysis prior to measuring caspase-3/7 enzymatic activity with Apo-ONE Homogeneous Caspase-3/7 Assay kit (Promega, Wis., USA), according to the manufacturer's instructions. Following determination of growth inhibition as described above, Apo-1 substrate/buffer mix was added to each well at a ratio of 1:1 and incubated for 4 hours on a rotating platform in the dark at 22° C. The fluorescence intensity (λex=485 nm and λem=525 nm) was determined on a Victor3 multilabel plate counter (PerkinElmer, Waltham, Mass., USA). Apoptosis was reported as the change in fluorescence over 4 hours and after subtraction of the media control.

In data set [1], `OCCc1ccc(O)c(O)c1` [HT, 4-(2-hydroxyethyl)-1,2-benzenediol] came in with a viability at 24 h of 100%. Also, the results for the total antioxidant capacity entry in the data set on K562 cells [2], with PBMC (listed as Hydroxytyrosol) and with PBMC (listed as hydroxytyrosol) were “deplete total antioxidant capacity”, “significantly increased the total antioxidant” and “enhance the antioxidant capacity”, respectively. In the data set with K562 cells [3], the “histone H3 lysine 9 (H3K9) di-methylation” value was “increased”. Also, in the data set with K562 cells [4] (K562, hydroxytyrosol 24 hours), the “caspase 3/7 apoptotic activity” value is recorded as “significant dose dependent increase”. Moreover, the “caspase 3/7 mediated apoptosis” value with K562 cells [4] (K562, hydroxytyrosol or Formulation 2 (4× diluted), FIG. 25) was “significantly induce caspase 3/7 mediated apoptosis”.

In general, viability refers to a read-out of living cells in per cent, often relative to untreated cells. Low readings indicate more harm to the cells, high ones less harm to the cells.
